Target: T1, SIRT1 (Homo sapiens, UniProt Q96EB6)
T1 sequence (Q96EB6 1-747): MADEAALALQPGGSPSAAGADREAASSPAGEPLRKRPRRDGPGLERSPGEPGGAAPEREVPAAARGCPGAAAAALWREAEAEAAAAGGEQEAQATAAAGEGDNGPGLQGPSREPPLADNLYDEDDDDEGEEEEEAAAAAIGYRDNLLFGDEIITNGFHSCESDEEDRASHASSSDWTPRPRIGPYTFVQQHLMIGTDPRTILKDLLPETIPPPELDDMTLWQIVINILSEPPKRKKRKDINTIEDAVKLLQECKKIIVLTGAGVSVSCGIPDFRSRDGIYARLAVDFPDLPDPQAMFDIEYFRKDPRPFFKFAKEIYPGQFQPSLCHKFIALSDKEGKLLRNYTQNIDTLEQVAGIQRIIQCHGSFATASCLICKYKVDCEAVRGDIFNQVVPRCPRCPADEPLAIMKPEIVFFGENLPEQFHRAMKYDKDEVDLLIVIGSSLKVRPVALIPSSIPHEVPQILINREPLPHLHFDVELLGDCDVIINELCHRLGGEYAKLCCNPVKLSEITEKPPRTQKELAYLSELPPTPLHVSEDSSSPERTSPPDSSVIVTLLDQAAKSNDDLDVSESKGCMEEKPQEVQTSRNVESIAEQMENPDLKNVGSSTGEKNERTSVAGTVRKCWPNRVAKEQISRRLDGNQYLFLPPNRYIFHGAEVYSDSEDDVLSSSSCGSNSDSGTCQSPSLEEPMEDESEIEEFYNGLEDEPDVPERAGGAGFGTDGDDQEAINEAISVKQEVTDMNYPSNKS
Experiment: Mass spectrometry based SIRT1 deacetylation assay (activation)
Assay type: biochemical
Settings: 10 nM SIRT1, 0.5 μM peptide substrate, 120 μM βNAD+, 25 min at 25° C.
Summary of the method: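 Activation reported as EC1.5, the compound concentration producing 150% of DMSO-control deacetylation, plus maximum fold activation. Readout is mass-spectrometric ratio of deacetylated to acetylated p53-based peptide (0.5 μM) after 25 min, 25 °C, with 120 μM βNAD+ and 10 nM His-tagged human SIRT1, pH 8.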

Row | Structure (SMILES) | % Fold Act. (percent maximum fold activation) | EC1.5 (concentration of test compound that results in 150% activation of SIRT1)
1 | O=C(Nc1ncccn1)c1cccc2ccc(-c3cccc(C(F)(F)F)c3)nc12 [Compound 48] | A (Fold activation >200%) | A (EC1.5<1.0 uM)
2 | O=C(Nc1cccc(Cl)n1)c1cccc2ccc(-c3cccc(C(F)(F)F)c3)nc12 [Compound 89] |  | C (EC1.5>25 uM)
3 | O=C(Nc1cccc2ccc(-c3cccc(OC(F)(F)F)c3)nc12)c1cscn1 [Compound 7] | A (Fold activation >200%) | B (EC1.5 1-25 uM)
4 | CC(C)(C)c1nnc(NC(=O)c2cccc3ccc(-c4cccc(C(F)(F)F)c4)nc23)s1 [Compound 44] | B (Fold Activation <200%) | A (EC1.5<1.0 uM)
5 | O=C(Nc1ccncc1)c1cccc2ccc(-c3cccc(C(F)(F)F)c3)nc12 [Compound 32] | A (Fold activation >200%) | A (EC1.5<1.0 uM)
6 | O=C(Nc1nccs1)c1cccc2ncc(-c3cccc(C(F)(F)F)c3)nc12 [Compound 123] |  | C (EC1.5>25 uM)
7 | O=C(O)c1csc(NC(=O)c2cccc3ccc(-c4cccc(C(F)(F)F)c4)nc23)n1 [Compound 101] | A (Fold activation >200%) | B (EC1.5 1-25 uM)
8 | FC(F)(F)Oc1cccc(-c2ccc3cccc(NCc4nccs4)c3n2)c1 [Compound 140] |  | C (EC1.5>25 uM)
9 | O=C(Nc1cccnc1)c1cccc2ccc(-c3cccc(C(F)(F)F)c3)nc12 [Compound 31] | A (Fold activation >200%) | A (EC1.5<1.0 uM)
10 | O=C(O)c1ccc(NC(=O)c2cccc3ccc(-c4cccc(C(F)(F)F)c4)nc23)o1 [Compound 90] | B (Fold Activation <200%) | B (EC1.5 1-25 uM)
11 | O=C(Nc1cccc2ccc(-c3ccccc3)nc12)c1cccc(N2CCCC2)c1 [Compound 1] |  | C (EC1.5>25 uM)
12 | O=C(NC1CCCC1)c1cccc2ccc(-c3cccc(C(F)(F)F)c3)nc12 [Compound 40] |  | C (EC1.5>25 uM)
13 | O=C(Nc1cccnc1)c1cccc2ccc(-c3cccc(OC(F)(F)F)c3)nc12 [Compound 25] | A (Fold activation >200%) | A (EC1.5<1.0 uM)
14 | O=C(Nc1nc2ccccc2s1)c1cccc2ccc(-c3cccc(C(F)(F)F)c3)nc12 [Compound 55] | A (Fold activation >200%) | A (EC1.5<1.0 uM)
15 | Cc1cccc(-c2ccc3cccc(NC(=O)c4cscn4)c3n2)c1 [Compound 79] | B (Fold Activation <200%) | A (EC1.5<1.0 uM)
16 | O=C(Nc1cccc2ccc(-c3ccncc3)nc12)c1cscn1 [Compound 77] | A (Fold activation >200%) | A (EC1.5<1.0 uM)
17 | O=C(Nc1ccccn1)c1cccc2ccc(-c3cccc(C(F)(F)F)c3)nc12 [Compound 30] | A (Fold activation >200%) | A (EC1.5<1.0 uM)

More lines, now with the values ahead:

Row | % Fold Act. (percent maximum fold activation) | EC1.5 (concentration of test compound that results in 150% activation of SIRT1) | Structure (SMILES)
18 | B (Fold Activation <200%) | A (EC1.5<1.0 uM) | O=C(Nc1cccc2ccc(-c3cccc(C(F)(F)F)c3)nc12)c1cocn1 [Compound 195]
19 | B (Fold Activation <200%) | A (EC1.5<1.0 uM) | O=C(Nc1cccc2ccc(-c3cccnc3)nc12)c1cnccn1 [Compound 142]
20 | A (Fold activation >200%) | A (EC1.5<1.0 uM) | Cc1ccc(-c2ccc3cccc(NC(=O)c4cscn4)c3n2)cn1 [Compound 198]
21 | B (Fold Activation <200%) | A (EC1.5<1.0 uM) | CN(C)c1cccc(C(=O)Nc2cccc3ccc(-c4cccc(C(F)(F)F)c4)nc23)c1 [Compound 215]
22 | A (Fold activation >200%) | B (EC1.5 1-25 uM) | O=C(Nc1ncc(CN2CCOCC2)s1)c1cccc2ccc(-c3cccnc3)nc12 [Compound 191]
23 |  | C (EC1.5>25 uM) | O=C(Nc1ccccn1)c1cccc2cc(C(F)(F)F)c(-c3ccccc3)nc12 [Compound 184]
24 | A (Fold activation >200%) | A (EC1.5<1.0 uM) | O=C(Nc1ccc(CN2CCCC2)nc1)c1cccc2ccc(-c3cccc(C(F)F)c3)nc12 [Compound 290]
25 | A (Fold activation >200%) | A (EC1.5<1.0 uM) | O=C(Nc1cccc(OC2CCNC2)c1)c1cccc2ccc(-c3cccc(C(F)(F)F)c3)nc12 (stereo not drawn) [Compound 257]
26 |  | C (EC1.5>25 uM) | FC(F)(F)c1ccccc1-c1ccc2cccc(NCc3cccnc3)c2n1 [Compound 162]
27 | B (Fold Activation <200%) | A (EC1.5<1.0 uM) | O=C(Nc1cccc2ccc(-c3ccc(F)c(C(F)(F)F)c3)nc12)c1ccccn1 [Compound 154]
28 | A (Fold activation >200%) | A (EC1.5<1.0 uM) | O=C(Nc1cccc(N2CCCC2)n1)c1cccc2ccc(-c3cccc(C(F)(F)F)c3)nc12 [Compound 320]
29 | A (Fold activation >200%) | A (EC1.5<1.0 uM) | O=C(Nc1nc2ccccc2s1)c1cccc2ccc(-c3cccc(N4CCOCC4)c3)nc12 [Compound 250]
30 |  | C (EC1.5>25 uM) | Fc1c(-c2ccc3cccc(NCc4cccnc4)c3n2)cccc1C(F)(F)F [Compound 165]
31 |  | C (EC1.5>25 uM) | O=C(Nc1cnccn1)c1cccc2ccc(-c3cccnc3)nc12 [Compound 181]
32 | A (Fold activation >200%) | A (EC1.5<1.0 uM) | O=C(Nc1cccc(CN2CCCC2)c1)c1cccc2ccc(-c3cccc(C(F)F)c3)nc12 [Compound 316]
33 | A (Fold activation >200%) | A (EC1.5<1.0 uM) | Cn1ccc(C(=O)Nc2cccc3ccc(-c4cccc(C(F)(F)F)c4)nc23)n1 [Compound 245]
34 | A (Fold activation >200%) | A (EC1.5<1.0 uM) | O=C(Nc1nc(CN2CCCC2)cs1)c1cccc2ccc(-c3cccc(OC(F)(F)F)c3)nc12 [Compound 148]
35 |  | C (EC1.5>25 uM) | Fc1ccc(C(F)(F)F)cc1-c1ccc2cccc(NCc3cccnc3)c2n1 [Compound 167]

— patent publication US8685970B2, “Quinolines and related analogs as sirtuin modulators” (GlaxoSmithKline, LLC, priority 2008, dated 2014)
